The text below walks through data of PubChem BioAssay (NCI).

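Where inhibition never reached the appropriate level, the endpoint shown equals the highest concentration tested. Otherwise, values were interpolated linearly from a five-concentration, 48-hour dose response in 96-well plates. The concentration for 50% growth inhibition is given as GI50. At the TGI there is no net growth.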

Test systems include ACHN renal; CCRF-CEM leukemia; HCT-15 colon; MALME-3M melanoma; MOLT-4 leukemia; NCI-H226 lung; SK-MEL-5 melanoma; SNB-75 CNS; U251 CNS; UO-31 renal.
Assay in all cases: growth of human tumour cells (NCI), 48 h

With `Cc1ccc2nc(NC(=O)CSC(=S)N3CCN(Cc4ccccc4)CC3)sc2c1`, the GI50 in the test on ACHN renal was more than 100 µM; with CCRF-CEM leukemia, more than 100000 nM; in the test on HCT-15 colon, more than 100 µM; in the test on MALME-3M melanoma it was more than 100 µM; in the test with MOLT-4 leukemia it was more than 100 µM; in the test with NCI-H226 lung, more than 100 µM. The GI50 with SK-MEL-5 melanoma is 56 µM; in the test with SNB-75 CNS, more than 100 µM; with U251 CNS it was more than 100 µM; in the test with UO-31 renal, more than 79.5 µM. For the same molecule, the TGI in the test on ACHN renal, in the test with CCRF-CEM leukemia, in the test with HCT-15 colon, with MALME-3M melanoma, in the test on MOLT-4 leukemia and in the test on NCI-H226 lung was more than 100 µM each time. Moreover, the TGI with SK-MEL-5 melanoma, in the test on SNB-75 CNS, with U251 CNS and in the test with UO-31 renal was more than 100 µM throughout.
As to `CCCCCn1ncc(-c2c(O)c(O)cc3c(O)c(-c4c(C)cc5c(-c6cnn(CCCCC)n6)c(O)c(O)cc5c4O)c(C)cc23)n1`, the GI50 with ACHN renal is 0.128 µM; in the test on CCRF-CEM leukemia, 92.7 nM; in the test on HCT-15 colon it was 0.0976 µM; in the test with MALME-3M melanoma, 0.138 µM; in the test with MOLT-4 leukemia it was 0.0898 µM; in the test with NCI-H226 lung it was 0.141 µM. Besides, the GI50 is 0.388 µM in the test with SK-MEL-5 melanoma, 0.165 µM in the test on SNB-75 CNS, 0.0351 µM in the test on U251 CNS and 0.18 µM in the test with UO-31 renal. The TGI in the test with ACHN renal worked out at 4.27 µM; in the test on CCRF-CEM leukemia it was 6.3 µM; with HCT-15 colon it was 5.01 µM; in the test with MALME-3M melanoma, 4.73 µM; in the test with MOLT-4 leukemia, 8.28 µM; with NCI-H226 lung, 2.8 µM. For the same molecule, the TGI in the test with SK-MEL-5 melanoma was 2.31 µM; with SNB-75 CNS, 3.84 µM; in the test on U251 CNS, 1.89 µM; with UO-31 renal, 1.84 µM.
`CN1CCN(c2ccc3nc(-c4ccc5nc(-c6ccc(C(F)(F)F)cc6)[nH]c5c4)[nH]c3c2)CC1`: the GI50 in the test on ACHN renal is 3.94 µM; in the test on CCRF-CEM leukemia it was 1560 nM; with HCT-15 colon, 7.48 µM; with MALME-3M melanoma, 1.08 µM; with MOLT-4 leukemia, 2.33 µM; with NCI-H226 lung it was 9.59 µM. Also, the GI50 with SK-MEL-5 melanoma was 3.36 µM; in the test with SNB-75 CNS, 1.87 µM; in the test with U251 CNS, 1.62 µM; in the test on UO-31 renal, 12.5 µM. Further, the TGI with ACHN renal came to 17.7 µM; with CCRF-CEM leukemia it was 3.68 µM; in the test on HCT-15 colon, 24.5 µM; with MALME-3M melanoma it was 2.44 µM; in the test on MOLT-4 leukemia, 4.96 µM; in the test with NCI-H226 lung, 29.9 µM. Moreover, the TGI in the test on SK-MEL-5 melanoma was determined as 15.5 µM; in the test on SNB-75 CNS, 9.97 µM; in the test on U251 CNS, 3.04 µM; with UO-31 renal, 28 µM.
On to `CCN(CCc1ccc(F)cc1)c1ccc(CO)c(Cl)c1`, for which the GI50 in the test with ACHN renal was 9.59 µM; in the test on CCRF-CEM leukemia, 15600 nM; in the test on HCT-15 colon, 9.84 µM; in the test on MALME-3M melanoma, 16 µM; with MOLT-4 leukemia, 14.3 µM; in the test with NCI-H226 lung it was 0.199 µM. Further, the GI50 with SK-MEL-5 melanoma is 13 µM; with SNB-75 CNS it was 9.26 µM; with U251 CNS, 4.06 µM; with UO-31 renal it was 11.1 µM. The TGI with ACHN renal is 22.5 µM; with CCRF-CEM leukemia, 47.3 µM; in the test on HCT-15 colon, 24.6 µM; with MALME-3M melanoma, 31.1 µM; in the test with MOLT-4 leukemia, 50.1 µM; with NCI-H226 lung, 0.637 µM. Moreover, the TGI with SK-MEL-5 melanoma was found to be 25.9 µM; in the test with SNB-75 CNS, 25.9 µM; with U251 CNS, 17.3 µM; with UO-31 renal, 23.8 µM.
On to `CC(=O)[CH-]C(=O)c1ccccc1.CC(=O)[CH-]C(=O)c1ccccc1.[O-]c1ccc(O)cc1.[O-]c1ccc(O)cc1.[Ti+4]`, for which the GI50 was 14.7 µM with ACHN renal; 1910 nM with CCRF-CEM leukemia; 15.7 µM in the test with HCT-15 colon; 18.1 µM in the test with MALME-3M melanoma; 4.18 µM in the test with MOLT-4 leukemia; 15 µM with NCI-H226 lung. For the same molecule, the GI50 was 16.2 µM in the test on SK-MEL-5 melanoma, 14.3 µM in the test on SNB-75 CNS, 11.1 µM in the test with U251 CNS and 23.7 µM with UO-31 renal. Moreover, the TGI was 28.1 µM in the test with ACHN renal; 7.49 µM in the test on CCRF-CEM leukemia; 37.6 µM with HCT-15 colon; 33.5 µM with MALME-3M melanoma; more than 100 µM in the test on MOLT-4 leukemia; 34.6 µM with NCI-H226 lung. For the same molecule, the TGI in the test on SK-MEL-5 melanoma was determined as 30.3 µM; in the test with SNB-75 CNS, 28.1 µM; with U251 CNS, 24 µM; in the test on UO-31 renal, 49.5 µM.
Turning to `O=C(CN1C(=O)c2ccccc2C1=O)OC1C=CCCC1` (configuration not stated), the TGI with ACHN renal, with CCRF-CEM leukemia, with HCT-15 colon, in the test on MALME-3M melanoma, with MOLT-4 leukemia and in the test on NCI-H226 lung was more than 100 µM throughout. For the same molecule, the TGI with SK-MEL-5 melanoma, in the test on SNB-75 CNS, with U251 CNS and in the test with UO-31 renal was more than 100 µM throughout.
Turning to `CC(=O)OC1CC(C)c2c1ncnc2N1CCN(C(=O)OC(C)(C)C)CC1` (configuration not stated), the GI50 with ACHN renal was 80.7 µM; with CCRF-CEM leukemia it was 32900 nM; in the test on HCT-15 colon, 55.3 µM; in the test on MALME-3M melanoma it was 35.5 µM; with MOLT-4 leukemia it was 37.2 µM; with NCI-H226 lung, 63.9 µM. Besides, the GI50 in the test on SK-MEL-5 melanoma was 37.8 µM; with SNB-75 CNS, 25.2 µM; in the test on UO-31 renal it was more than 100 µM. Besides, the TGI in the test with ACHN renal, in the test with CCRF-CEM leukemia, in the test on HCT-15 colon, in the test with MALME-3M melanoma, with MOLT-4 leukemia and with NCI-H226 lung was more than 100 µM throughout. Besides, the TGI in the test on SK-MEL-5 melanoma, in the test on SNB-75 CNS and in the test with UO-31 renal was more than 100 µM in each case.
For the molecule `CN1NC(c2ccccc2)=C(C#N)C(=O)CC1c1ccccc1Cl` (configuration not stated), the TGI in the test on ACHN renal, in the test on CCRF-CEM leukemia, in the test on HCT-15 colon, with MALME-3M melanoma, in the test on MOLT-4 leukemia and with NCI-H226 lung was more than 100 µM each time. Further, the TGI with SK-MEL-5 melanoma, in the test with SNB-75 CNS and in the test with U251 CNS was more than 100 µM throughout.
